Laboratory results from patent publication US10005767B2, “Compositions and methods for inhibition of the JAK pathway” (Rigel Pharmaceuticals, Inc., priority 2009, dated 2018).

The compounds below were run on human primary T-cells, IL-2 stimulated proliferation (JAK-1 and JAK-3 dependent; reported as JAK3 activity) (assay: Human primary T-cell proliferation stimulated by IL-2 (Example 3)). Details: Homo sapiens, T-cell, tested under conditions described in Example 3 (IL-2 stimulated human primary T-cell proliferation); read-out: ability to inhibit JAK3 activity, IC50 range (Table V).
Format: cell-based
Text: The activity of the compounds described herein can further be characterized by assaying the effect of the 2,4-pyrimidinediamine compounds described herein on the proliferative response of primary human T-cells. In this assay, primary human T-cells derived from peripheral blood and pre-activated through stimulation of the T-cell receptor and CD28, proliferate in culture in response to the cytokine Interleukin-2 (IL-2). This proliferative response is dependent on the activation of JAK1 and JAK3 tyrosine kinases, which phosphorylate and activate the transcription factor Stat-5. The primary human T-cells are incubated with the 2,4-pyrimidinediamine compounds in the presence of IL-2 for 72 hours, and at the assay endpoint intracellular ATP concentrations are measured to assess cell viability. A reduction in cell proliferation compared to control conditions is indicative of inhibition of the JAK kinase pathway.
Primary human T-cells derived from peripheral blood and pre-activated through stimulation of the T-cell receptor and CD28, proliferate in vitro in response to the cytokine Interleukin-2 (IL-2). This proliferative response is dependent on the activation of JAK-1 and JAK-3 tyrosine kinases, which phosphorylate and activate the transcription factor Stat-5.
Human primary T cells were prepared as follows. […] The lymphocytes at the serum: ficoll interface were recovered and washed twice with 5 volumes of PBS. […] The primary T-cells were stimulated for 3-4 days, then transferred to a fresh flask and maintained in RPMI with 10% FBS and 40 U/mL IL-2.
The day prior to the assay set up, primary T-cells were centrifuged and resuspended in fresh RPMI with 10% FBS but without IL-2 and starved overnight. For the assay, the primary T-cells were centrifuged and resuspended Yssel's medium at 2×10^6 cells/mL. 50 μL of cell suspension containing 80 U/mL IL-2 was added to each well of a flat bottom 96 well black plate. For the unstimulated control, IL-2 was omitted from the last column on the plate. […] 50 μL of 2× compound was added per well in duplicate and the cells were allowed to proliferate for 72 hours at 37° C.
Proliferation was measured using CellTiter-Glo® Luminescent Cell Viability Assay (Promega), which determines the number of viable cells in culture based on quantitation of the ATP present, as an indicator of metabolically active cells. The substrate was thawed and allowed to come to ambient temperature. After mixing the Cell Titer-Glo reagent and diluent together, 100 μL was added to each well. The plates were mixed on an orbital shaker for two minutes to induce lysis and incubated at ambient temperature for an additional ten minutes to allow the signal to equilibrate.
The compound designations in Table V are consistent with those of Tables I-IV above.
With `COc1cc(Nc2ncc(C)c(Nc3ccc4oc(=O)[nH]c4c3)n2)cc(C(=O)N2CCOCC2)c1` [Compound I-254, 5-(2-(3-methoxy-5-(morpholine-4-carbonyl)phenylamino)-5-methylpyrimidin-4-ylamino)benzo[d]oxazol-2(3H)-one] the IC50 was < 500 nM.
`Cc1cnc(Nc2cc(Cl)cc(C(F)(F)F)c2)nc1Nc1ccc2oc(=O)[nH]c2c1` [Compound I-497, 5-[2-(3-Chloro-5-trifluoromethyl-phenylamino)-5-methyl-pyrimidin-4-ylamino]-3H-benzooxazol-2-one] was tested, and the IC50 was > 10000 nM.
`COc1cc(Nc2ncc(C)c(Nc3ccc4oc(=O)[nH]c4c3)n2)cc(C(C)N2CCC2)c1` (centres unmarked) [Compound I-235, 5-(2-(3-(1-(azetidin-1-yl)ethyl)-5-methoxyphenylamino)-5-methylpyrimidin-4-ylamino)benzo[d]oxazol-2(3H)-one] was tested, and the IC50 was < 500 nM.
`CCCNC(C)c1cccc(Nc2ncc(C)c(Nc3ccc4oc(=O)[nH]c4c3)n2)c1` (centres unmarked) [Compound I-208, 5-(5-methyl-2-(3-(1-(propylamino)ethyl)phenylamino)pyrimidin-4-ylamino)benzo[d]oxazol-2(3H)-one] was tested, and the IC50 was < 500 nM.
`CCN1CCN(c2ncc(Nc3ncc(C)c(Nc4ccc5oc(=O)[nH]c5c4)n3)cc2F)CC1` [II-114, N4-(benzo[d]oxazolin-2(3H)-one-5-yl)-N2-[2-(4-ethylpiperazin-1-yl)-3-fluoropyridine-5-yl]-5-methyl-2,4-pyrimidinediamine] was tested, and the IC50 was < 500 nM.
For `Cc1ccc(Nc2ncc(C)c(Nc3ccc4oc(=O)[nH]c4c3)n2)cc1C#N` [Compound I-131, 2-Methyl-5-[5-methyl-4-(2-oxo-2,3-dihydro-benzooxazol-5-ylamino)-pyrimidin-2-ylamino]-benzonitrile], the IC50 was < 500 nM.
`Cc1cnc(Nc2ccc(N3CCN(C)CC3)nc2)nc1Nc1ccc2oc(=O)n(C(C)C)c2c1` [II-7, N2-(6-(4-methylpiperazin-1-yl)pyridin-3-yl)-N4-(3-isopropylbenzo[d]oxazol-2(3H)-on-5-yl)-5-methylpyrimidine-2,4-diamine] was tested, and the IC50 was < 500 nM.
`CC(=O)c1cccc(Nc2ncc(C)c(Nc3ccc4oc(=O)[nH]c4c3)n2)c1` [Compound I-130, 5-[2-(3-Acetyl-phenylamino)-5-methyl-pyrimidin-4-ylamino]-3H-benzooxazol-2-one] was tested, and the IC50 was < 500 nM.
With `Cc1cnc(Nc2cc(Cl)cc(Cl)c2)nc1Nc1ccc2oc(=O)[nH]c2c1` [Compound I-184, 5-[2-(3,5-Dichloro-phenylamino)-5-methyl-pyrimidin-4-ylamino]-3H-benzooxazol-2-one] the IC50 was < 500 nM.
`COc1cc(Nc2ncc(C)c(Nc3ccc4oc(=O)[nH]c4c3)n2)cc(OC)c1C` [Compound I-529, 5-(2-(3,5-dimethoxy-4-methylphenylamino)-5-methylpyrimidin-4-ylamino)benzo[d]oxazol-2(3H)-one] was tested, and the IC50 was < 500 nM.
In the case of `CCN(CC)C1CCN(C(C)c2cccc(Nc3ncc(C)c(Nc4ccc5oc(=O)[nH]c5c4)n3)c2)C1` (centres unmarked) [Compound I-214, 5-(2-(3-(1-(3-(diethylamino)pyrrolidin-1-yl)ethyl)phenylamino)-5-methylpyrimidin-4-ylamino)benzo[d]oxazol-2(3H)-one], the IC50 is reported as < 500 nM.
In the case of `Cc1cnc(Nc2ccc(C(=O)NC3CCC3)nc2)nc1Nc1ccc2oc(=O)[nH]c2c1` [II-151, 5-[5-Methyl-4-(2-oxo-2,3-dihydro-benzooxazol-5-ylamino)-pyrimidin-2-ylamino]-pyridine-2-carboxylic acid cyclobutylamide], the IC50 is reported as < 500 nM.
`Cc1cnc(Nc2ccc(N3C[C@@H]4C[C@H]3CO4)nc2)nc1Nc1ccc2oc(=O)[nH]c2c1` [II-32, N4-(benzoxazolin-2-on-5-yl)-N2-[2-((1S,4S)-2-oxa-5-azabicyclo[2.2.1]heptan-5-yl)pyridin-5-yl]-5-methylpyrimidine-2,4-diamine] was tested, and the IC50 was < 500 nM.
For `Cc1cc(Nc2ncc(C)c(Nc3ccc4oc(=O)[nH]c4c3)n2)c(C)cc1Cl` [Compound I-176, 5-[2-(4-Chloro-2,5-dimethyl-phenylamino)-5-methyl-pyrimidin-4-ylamino]-3H-benzooxazol-2-one], the IC50 was 500 to 5000 nM.
For `Cc1cnc(Nc2ccc3c(C)n[nH]c3c2)nc1Nc1ccc2oc(=O)[nH]c2c1` [IV-48, 5-methyl-N2-(3-methylindazol-6-yl)-N4-(2-oxo-2,3-dihydro-1,3-benzoxazol-5-yl)-2,4-pyrimidinediamine], the IC50 was < 500 nM.
`CCN1CCN(c2ncc(Nc3ncc(C)c(Nc4ccc5oc(=O)[nH]c5c4)n3)cc2C(F)(F)F)CC1` [II-110, N4-(benzo[d]oxazolin-2(3H)-one-5-yl)-N2-[2-(4-ethylpiperazin-1-yl)-3-trifluoromethylpyridine-5-yl]-5-methyl-2,4-pyrimidinediamine] was tested, and the IC50 was < 500 nM.
`COc1cc(Nc2ncc(C)c(Nc3ccc4oc(=O)[nH]c4c3)n2)ccc1Cl` [Compound I-181, 5-[2-(4-Chloro-3-methoxy-phenylamino)-5-methyl-pyrimidin-4-ylamino]-3H-benzooxazol-2-one] was tested, and the IC50 was < 500 nM.
For `Cc1ccc(Nc2ncc(C)c(Nc3ccc4oc(=O)[nH]c4c3)n2)cc1-c1cccnc1` [Compound I-444, 5-(5-methyl-2-(4-methyl-3-(pyridin-3-yl)phenylamino)pyrimidin-4-ylamino)benzo[d]oxazol-2(3H)-one], the IC50 was < 500 nM.

Same assay, conditions: tested under conditions described in Example 3 (IL-2 stimulated human primary T-cell proliferation); read-out: ability to inhibit JAK3 activity, IC50 range (Table V)
For `Cc1cc(C)cc(Nc2ncc(C)c(Nc3ccc4oc(=O)[nH]c4c3)n2)c1` [Compound I-302, N2-(3,5-dimethyl)phenyl-5-methyl-N4-(2-oxo-2,3-dihydro-1,3-benzoxazol-5-yl)-2,4-pyrimidinediamine], the IC50 was < 500 nM.
For `CCCN1CCN(c2cc(Nc3ncc(C)c(Nc4ccc5oc(=O)[nH]c5c4)n3)ccc2C(F)(F)F)CC1` [Compound I-285, 5-methyl-N4-(2-oxo-2,3-dihydro-1,3-benzoxazol-5-yl)-N2-[3-(4-propylpiperazino)-4-trifluoromethyl]phenyl-2,4-pyrimidinediamine], the IC50 was < 500 nM.
`Cc1cnc(Nc2ccc(S(N)(=O)=O)cc2)nc1Nc1ccc2oc(=O)[nH]c2c1` [Compound I-15] was tested, and the IC50 was < 500 nM.
With `Cc1cnc(Nc2cc(C)c(OC(F)F)c(C)c2)nc1Nc1ccc2oc(=O)[nH]c2c1` [Compound I-385, N2-(4-difluoromethoxy-3,5-dimethyl)phenyl-5-methyl-N4-(2-oxo-2,3-dihydro-1,3-benzoxazol-5-yl)-2,4-pyrimidinediamine] the IC50 was < 500 nM.
With `Cc1cnc(Nc2ccc(NS(C)(=O)=O)cc2)nc1Nc1ccc2oc(=O)n(C(C)C)c2c1` [Compound I-10, N4-(3-isopropylbenzo[d]oxazol-2(3H)-on-5-yl)-N2-((4-methylsulfonylamino)phenyl)-5-methylpyrimidine-2,4-diamine] the IC50 was < 500 nM.
`COc1ccc(Nc2ncc(C)c(Nc3ccc4oc(=O)[nH]c4c3)n2)cc1F` [Compound I-350, N2-(3-fluoro-4-methoxy)phenyl-5-methyl-N4-(2-oxo-2,3-dihydro-1,3-benzoxazol-5-yl)-2,4-pyrimidinediamine] was tested, and the IC50 was < 500 nM.
With `Cc1cnc(Nc2cccc(C(O)C(F)(F)F)c2)nc1Nc1ccc2oc(=O)[nH]c2c1` (centres unmarked) [Compound I-304, N2-[3-(1-hydroxy-2,2,2-trifluoroethyl)]phenyl-5-methyl-N4-(2-oxo-2,3-dihydro-1,3-benzoxazol-5-yl)-2,4-pyrimidinediamine] the IC50 was < 500 nM.
With `COc1cc(Nc2ncc(C)c(Nc3ccc4oc(=O)n(COP(=O)(O)O)c4c3)n2)cc(C(F)(F)F)c1` [Compound I-357, N2-(3-methoxy-5-trifluoromethyl)phenyl-5-methyl-N4-[3-(phosphonooxy)methyl-2-oxo-2,3-dihydro-1,3-benzoxazol-5-yl]-2,4-pyrimidinediamine] the IC50 was 500 to 5000 nM.
`CS(=O)(=O)c1ccc(Nc2ncc(F)c(Nc3ccc4[nH]c(=O)[nH]c4c3)n2)cc1` [Compound I-23, N4-(benzimidazolin-2-on-5-yl)-N2-(4-methylsulfonyl)phenyl-5-fluoropyrimidine-2,4-diamine] was tested, and the IC50 was > 10000 nM.
With `Cc1cnc(Nc2ccc(Br)cc2)nc1Nc1ccc2oc(=O)[nH]c2c1` [Compound I-288, N2-(4-bromo)phenyl-5-methyl-N4-(2-oxo-2,3-dihydro-1,3-benzoxazol-5-yl)-2,4-pyrimidinediamine] the IC50 was < 500 nM.
With `Cc1cnc(Nc2ccc(S(N)(=O)=O)cc2)nc1Nc1ccc2c(c1)oc(=O)n2C` [Compound I-64, N2-((4-aminosulfonyl)phenyl)-N4-(3-methyl-2-oxo-2,3-dihydrobenzo[d]oxazol-6-yl)-5-methylpyrimidine-2,4-diamine] the IC50 was > 10000 nM.
